What was measured:
Assay in all cases: fitness (endpoint OD595 vs no drug) (fraction); higher = more growth
B. subtilis 168 = tested on: B. subtilis 168
Method in brief: (§1)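 In 384-well plates at 37 °C, cultures began at OD595 0.01 in 30 µl, with 55 µl used for S. pneumoniae. OD595 readings every 30 min for 14 h were corrected by the first reading. Fitness divides the stationary-phase transition optical density by the robust mean of no-drug control wells. The result is capped at 1.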

S. aureus DSM 20231 = tested on: S. aureus DSM 20231
Method in brief: as §1

S. aureus Newman = tested on: S. aureus Newman
Method in brief: as §1
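Note: OD595 on entry to stationary phase over no-drug wells; at most 1.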

N[C@@H]1CONC1=O [Cycloserine D] + CC1=C\[C@@H](O)CC(=O)Cc2nc(co2)C(=O)N2CCC=C2C(=O)O[C@H](C(C)C)[C@H](C)/C=C/C(=O)NC\C=C\1 [Virginiamycin M1]
fitness
Details | first compound 0.125 µg/mL | first compound 0.25 µg/mL | first compound 0.375 µg/mL | first compound 0.5 µg/mL | first compound 0.75 µg/mL | first compound 1.5 µg/mL
B. subtilis 168, partner 0.0625 µg/mL | 0.967 | 0.971 | – | 0.852 | – | –
B. subtilis 168, partner 0.125 µg/mL | 0.922 | 0.909 | – | 0.916 | – | –
B. subtilis 168, partner 0.25 µg/mL | 0.921 | 0.906 | – | ≥ 1 | – | –
S. aureus DSM 20231, partner 0.0625 µg/mL | – | – | ≥ 1 | – | ≥ 1 | 0.955
S. aureus DSM 20231, partner 0.125 µg/mL | – | – | ≥ 1 | – | ≥ 1 | ≥ 1
S. aureus DSM 20231, partner 0.25 µg/mL | – | – | 0.999 | – | 1 | ≥ 1
S. aureus Newman, partner 0.0625 µg/mL | – | – | ≥ 1 | – | 0.969 | 0.985
S. aureus Newman, partner 0.125 µg/mL | – | – | ≥ 1 | – | 0.98 | 0.991
S. aureus Newman, partner 0.25 µg/mL | – | – | ≥ 1 | – | 1 | 0.981

fitness, one replicate
Details | first compound 0.375 µg/mL | first compound 0.75 µg/mL | first compound 1.5 µg/mL
S. aureus DSM 20231, partner 0.5 µg/mL | 0.996 | 0.99 | 0.999
S. aureus DSM 20231, partner 1 µg/mL | 0.958 | 0.984 | 0.908
S. aureus Newman, partner 0.5 µg/mL | 0.914 | 0.934 | ≥ 1
S. aureus Newman, partner 1 µg/mL | ≥ 1 | 0.967 | 0.882
S. aureus Newman, partner 2 µg/mL | 0.888 | 0.931 | 0.769

N[C@@H]1CONC1=O [Cycloserine D] + CN[C@@H]1[C@H](O)[C@H](NC)[C@H]2O[C@@]3(O)C(=O)C[C@@H](C)O[C@H]3O[C@@H]2[C@H]1O [Spectinomycin]
fitness
Details | first compound 0.125 µg/mL | first compound 0.25 µg/mL | first compound 0.375 µg/mL | first compound 0.5 µg/mL | first compound 0.75 µg/mL | first compound 1.5 µg/mL
B. subtilis 168, partner 2 µg/mL | ≥ 1 | 0.985 | – | 0.992 | – | –
B. subtilis 168, partner 4 µg/mL | 0.947 | 0.934 | – | 0.957 | – | –
B. subtilis 168, partner 8 µg/mL | 0.906 | 0.924 | – | 0.879 | – | –
S. aureus DSM 20231, partner 4 µg/mL | – | – | 0.977 | – | 0.971 | 0.969
S. aureus DSM 20231, partner 8 µg/mL | – | – | 0.944 | – | 0.981 | 0.932
S. aureus DSM 20231, partner 16 µg/mL | – | – | 0.842 | – | 0.877 | 0.882
S. aureus Newman, partner 4 µg/mL | – | – | 0.96 | – | 0.924 | 0.908
S. aureus Newman, partner 8 µg/mL | – | – | ≥ 1 | – | 0.94 | 0.917
S. aureus Newman, partner 16 µg/mL | – | – | 0.941 | – | 0.894 | 0.875

fitness, one replicate
Details | first compound 0.375 µg/mL | first compound 0.75 µg/mL | first compound 1.5 µg/mL
S. aureus DSM 20231, partner 32 µg/mL | 0.726 | 0.786 | 0.736
S. aureus DSM 20231, partner 64 µg/mL | 0.0858 | 0.0864 | 0.0563
S. aureus Newman, partner 32 µg/mL | 0.575 | 0.596 | 0.501
S. aureus Newman, partner 64 µg/mL | 0.0802 | 0.0265 | 0.0316

N[C@@H]1CONC1=O [Cycloserine D] + Cc1cc(NS(=O)(=O)c2ccc(N)cc2)no1 [Sulfamethoxazol]
fitness, one replicate
Details | first compound 0.125 µg/mL | first compound 0.25 µg/mL | first compound 0.375 µg/mL | first compound 0.5 µg/mL | first compound 0.75 µg/mL | first compound 1.5 µg/mL
B. subtilis 168, partner 0.5 µg/mL | 0.939 | 0.993 | – | 0.977 | – | –
S. aureus Newman, partner 8 µg/mL | – | – | ≥ 1 | – | ≥ 1 | ≥ 1

fitness
Details | first compound 0.125 µg/mL | first compound 0.25 µg/mL | first compound 0.375 µg/mL | first compound 0.5 µg/mL | first compound 0.75 µg/mL | first compound 1.5 µg/mL
B. subtilis 168, partner 1 µg/mL | 0.941 | 0.933 | – | 0.868 | – | –
B. subtilis 168, partner 2 µg/mL | 0.869 | 0.896 | – | 0.929 | – | –
B. subtilis 168, partner 4 µg/mL | 0.951 | 0.931 | – | ≥ 1 | – | –
S. aureus DSM 20231, partner 1 µg/mL | – | – | ≥ 1 | – | ≥ 1 | 0.93
S. aureus DSM 20231, partner 2 µg/mL | – | – | ≥ 1 | – | 0.913 | 0.982
S. aureus DSM 20231, partner 4 µg/mL | – | – | ≥ 1 | – | 0.929 | ≥ 1
S. aureus Newman, partner 1 µg/mL | – | – | 0.997 | – | 0.979 | 0.949
S. aureus Newman, partner 2 µg/mL | – | – | ≥ 1 | – | ≥ 1 | ≥ 1
S. aureus Newman, partner 4 µg/mL | – | – | ≥ 1 | – | ≥ 1 | ≥ 1

From the supplement of paper PMC10627819
